In article PMC6104465, “Synthesis and in vitro and in vivo evaluation of urea-based PSMA inhibitors with increased lipophilicity” (EJNMMI Research, 2018):
Read-outs that look alike come from different tables or passages of the source. One block for each molecule: values may come before it.

Legend:
human serum albumin [1] = molecular target: T1, human serum albumin (Homo sapiens, UniProt P02768); parameters: method as in Valko et. al. or Yamazaki et al. [3, 4]; conditions: calibration reference substances; ref Valko et. al. or Yamazaki et al. [3, 4]; cited from earlier work
T1 construct: purchased Daicel Chemical Industries, purchased from Chiral Technologies Europe (Illkirch, France) Chiralpak HSA (5 μm, 50 × 3 mm)

human serum albumin [2] = molecular target: T1, human serum albumin; experiment: human serum albumin binding, HPLC on Chiralpak HSA column; assay type: in vitro ADME; conditions: for Log K HSA: calibration reference substances, logarithmic K from the literature HSA binding, ref [3, 4]; for bound to HSA: HPLC, Chiralpak HSA column
Experimental: High in vivo plasma protein binding increases the plasma half-life of the radiopharmaceutical and therefore might offer beneficiary effects on the tracer distribution (higher uptake into target tissue) but can also lead to increased background activity especially at early time points. In general, drugs binding to plasma proteins with high affinity feature moderate to high lipophilicity, in many cases due to halogenated aromatic groups. […] Human albumin binding was determined, applying a modified HPLC method.
Mobile phase A was an ammonium acetate buffer (50 mM, pH 6.9), mobile phase B was 2-propanol, the flow rate was 0.5 mL/min, and equilibration with 0% B for 3 min was followed by a gradient of 0% B to 20% B to the end of each run within 45 min. To check the column performance and to conduct the non-linear regression, the HSA column was calibrated each day with nine reference substances. Afterward, the PSMA inhibitors with unknown HSA binding were measured. The retention times and factors together with correlation curve are found in Additional file 1.
HSA binding experiments were performed as previously described. […] For each run, 10 µL of the solution containing the inhibitor was injected into the RP-HPLC system and the retention time measured. […] Non-linear regression was established with OriginPro 2016G.

PSMA [3] = molecular target: T2, PSMA (Homo sapiens, UniProt Q04609); conditions: LNCaP cells 150,000 cells/well, 4 °C, 1 h, c(125I-IBA) = 0.2 nM; mean ± SD; ref [17]; read-out: IC50 (affinity to PSMA); cited from earlier work
T2 construct: endogenous in cells; host or cells: LNCaP cells (CLS: 300265)

PSMA [4] = molecular target: T2, PSMA; experiment: competitive binding assay on LNCaP cells (radioligand 125I-IBA); conditions: read-out: IC50 (affinity to PSMA)
Experimental: The effect of the lipophilic (aromatic) modifications in the spacer unit of the acetylated PSMA inhibitors 1–9 on the IC50 to PSMA was determined in a competitive binding assay on PSMA-expressing LNCaP cells.
The PSMA affinity was determined as described previously. In brief, 150,000 LNCaP cells were seeded into 24-well plates one day prior to the experiment. […] After removal of the supernatant, the cells were washed once with HBSS and subsequently lysed with 1 n NaOH. Both fractions were quantified in a γ-counter. Using the Graphpad Prism software, binding curves were plotted and IC50 values were extracted. Three independent determinations were performed in triplicate for each compound.

[5] = LNCaP cells 150,000 cells/well, 4 °C, 1 h, c(125I-IBA) = 0.2 nM, mean ± SD (n = 3)

T2 sequence (Q04609 whole entry): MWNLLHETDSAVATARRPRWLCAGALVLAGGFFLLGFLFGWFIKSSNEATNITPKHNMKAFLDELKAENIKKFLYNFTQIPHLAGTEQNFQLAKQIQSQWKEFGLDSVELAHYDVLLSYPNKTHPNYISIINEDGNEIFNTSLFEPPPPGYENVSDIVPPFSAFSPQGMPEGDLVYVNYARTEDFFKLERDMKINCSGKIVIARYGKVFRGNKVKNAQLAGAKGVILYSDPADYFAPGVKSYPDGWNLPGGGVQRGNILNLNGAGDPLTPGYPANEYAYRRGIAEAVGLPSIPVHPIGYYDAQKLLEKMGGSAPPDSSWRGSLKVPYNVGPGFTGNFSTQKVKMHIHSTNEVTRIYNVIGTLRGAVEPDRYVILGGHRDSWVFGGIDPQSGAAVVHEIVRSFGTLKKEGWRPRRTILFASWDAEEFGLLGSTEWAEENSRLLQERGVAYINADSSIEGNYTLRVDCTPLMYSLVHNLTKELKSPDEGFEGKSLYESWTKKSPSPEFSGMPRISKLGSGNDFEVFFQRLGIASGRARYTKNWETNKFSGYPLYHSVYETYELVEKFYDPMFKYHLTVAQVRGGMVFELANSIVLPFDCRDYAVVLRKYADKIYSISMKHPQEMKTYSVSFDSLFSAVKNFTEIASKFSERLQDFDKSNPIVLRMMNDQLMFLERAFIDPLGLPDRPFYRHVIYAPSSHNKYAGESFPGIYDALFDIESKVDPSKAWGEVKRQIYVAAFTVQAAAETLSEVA
T1 sequence (P02768 25-609): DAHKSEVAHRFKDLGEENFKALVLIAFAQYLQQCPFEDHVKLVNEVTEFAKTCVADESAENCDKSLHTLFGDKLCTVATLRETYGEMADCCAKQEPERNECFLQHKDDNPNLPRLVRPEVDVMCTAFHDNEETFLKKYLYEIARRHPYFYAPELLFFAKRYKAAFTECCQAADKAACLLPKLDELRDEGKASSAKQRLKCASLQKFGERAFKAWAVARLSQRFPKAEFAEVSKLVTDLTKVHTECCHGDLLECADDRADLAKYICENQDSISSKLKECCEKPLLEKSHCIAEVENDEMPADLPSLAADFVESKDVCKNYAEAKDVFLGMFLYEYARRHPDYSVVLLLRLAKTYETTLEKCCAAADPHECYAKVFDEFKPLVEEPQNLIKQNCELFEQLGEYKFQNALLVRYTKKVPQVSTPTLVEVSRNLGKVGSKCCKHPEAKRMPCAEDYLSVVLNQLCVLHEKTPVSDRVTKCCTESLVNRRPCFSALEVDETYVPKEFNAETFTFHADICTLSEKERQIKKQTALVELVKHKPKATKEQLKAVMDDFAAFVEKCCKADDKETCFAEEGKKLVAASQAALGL

Molecule: Nc1ccccc1 [Aniline]
- Lit. HSA% (literature value of human serum albumin binding) (human serum albumin [1]): 14.06%
- Log K HSA (human serum albumin [2]): -0.79

Molecule: O=C(O)c1ccccc1 [Benzoic Acid]
- Lit. HSA% (literature value of human serum albumin binding) (human serum albumin [1]): 34.27%

Molecule: O=C(O)CC[C@H](NC(=O)N[C@@H](CCCCNC(=O)CCCCCCC(=O)NCCCC[C@@H](NC(=O)[C@@H](Cc1ccccc1)NC(=O)[C@@H](Cc1ccc(O)c(I)c1)NC(=O)CCC(C(=O)O)N1CCN(CC(=O)O)CCN(CC(=O)O)CCN(CC(=O)O)CC1)C(=O)O)C(=O)O)C(=O)O (some centres unmarked) [PSMA I&T, DOTAGA-(I-y)fk(Sub-KuE)]
- IC50 (PSMA [3]): 10.2 ± 3.5 nM

Molecule: CC(=O)N[C@@H](Cc1ccc(O)cc1)C(=O)N[C@@H](Cc1ccc([N+](=O)[O-])cc1)C(=O)N[C@@H](CCCCNC(=O)CCCCCCC(=O)NCCCC[C@H](NC(=O)N[C@@H](CCC(=O)O)C(=O)O)C(=O)O)C(=O)O [PSMA inhibitor 7, Ac-Y(4-NO2-F)K(Sub-KuE)]
- IC50 (PSMA [4]): 7.4 ± 0.5 nM

Molecule: CC(=O)N[C@@H](Cc1ccc(O)cc1)C(=O)N[C@@H](Cc1cc(I)c(O)c(I)c1)C(=O)N[C@@H](CCCCNC(=O)CCCCCCC(=O)NCCCC[C@H](NC(=O)N[C@@H](CCC(=O)O)C(=O)O)C(=O)O)C(=O)O [PSMA inhibitor 8, Ac-Y(3,5-di-I-Y)K(Sub-KuE)]
- IC50 (PSMA [4]): 3.8 ± 0.6 nM

Molecule: CC(=O)N[C@@H](Cc1ccc(O)cc1)C(=O)N[C@@H](Cc1ccc(O)c(C)c1)C(=O)N[C@@H](CCCCNC(=O)CCCCCCC(=O)NCCCC[C@H](NC(=O)N[C@@H](CCC(=O)O)C(=O)O)C(=O)O)C(=O)O [PSMA inhibitor 9, Ac-Y(3-CH3-Y)K(Sub-KuE)]
- IC50 (PSMA [4]): 7.2 ± 0.9 nM

Molecule: O=C(O)CC[C@H](NC(=O)N[C@@H](CCCCNC(=O)CCCCCCC(=O)NCCCC[C@@H](NC(=O)[C@@H](Cc1ccc2ccccc2c1)NC(=O)[C@@H](Cc1ccc(O)cc1)NC(=O)CCC(C(=O)O)N1CCN(CC(=O)O)CCN(CC(=O)O)CCN(CC(=O)O)CC1)C(=O)O)C(=O)O)C(=O)O (some centres unmarked) [PSMA inhibitor 10, DOTAGA-y-2-nal-k(Sub-KuE)]
- IC50 (PSMA [4]; [5]): 8.5 ± 2.5 nM

Molecule: Oc1ccccc1 [Phenol]
- Lit. HSA% (literature value of human serum albumin binding) (human serum albumin [1]): 20.69%
- Log K HSA (human serum albumin [2]): -0.59

Molecule: CCCN(CCC)S(=O)(=O)c1ccc(C(=O)O)cc1 [Probenecid]
- Lit. HSA% (literature value of human serum albumin binding) (human serum albumin [1]): 95.00%
- Log K HSA (human serum albumin [2]): 1.20

Molecule: ^natGa-DOTAGA-(I-y)fk(Sub-KuE) [^natGa-PSMA I&T]
- IC50 (PSMA [3]): 9.3 ± 3.3 nM

Molecule: ^natLu-DOTAGA-(I-y)fk(Sub-KuE) [^natLu-PSMA I&T]
- IC50 (PSMA [3]): 7.9 ± 2.4 nM
- bound to HSA (human serum albumin [2]): 79%

The next lines start with results.

- Log K HSA (human serum albumin [2]): 1.69
Molecule: COc1ccc(Cl)cc1C(=O)NCCc1ccc(S(=O)(=O)NC(=O)NC2CCCCC2)cc1 [Glibenclamide]
- Lit. HSA% (literature value of human serum albumin binding) (human serum albumin [1]): 99.00%

- IC50 (PSMA [4]): 15 ± 1.3 nM
Molecule: CC(=O)N[C@@H](Cc1ccc(O)cc1)C(=O)N[C@@H](Cc1ccccc1)C(=O)N[C@@H](CCCCNC(=O)CCCCCCC(=O)NCCCC[C@H](NC(=O)N[C@@H](CCC(=O)O)C(=O)O)C(=O)O)C(=O)O [PSMA inhibitor 1, Ac-YFK(Sub-KuE)]

- IC50 (PSMA [4]): 6.8 ± 3.3 nM
Molecule: CC(=O)N[C@@H](Cc1ccc(O)cc1)C(=O)N[C@@H](Cc1c[nH]c2ccccc12)C(=O)N[C@@H](CCCCNC(=O)CCCCCCC(=O)NCCCC[C@H](NC(=O)N[C@@H](CCC(=O)O)C(=O)O)C(=O)O)C(=O)O [PSMA inhibitor 2, Ac-YWK(Sub-KuE)]

- IC50 (PSMA [4]): 139 ± 117 nM
Molecule: CC(=O)N[C@@H](Cc1ccc(O)cc1)C(=O)N[C@@H](Cc1ccc(-c2ccccc2)cc1)C(=O)N[C@@H](CCCCNC(=O)CCCCCCC(=O)NCCCC[C@H](NC(=O)N[C@@H](CCC(=O)O)C(=O)O)C(=O)O)C(=O)O [PSMA inhibitor 4, Ac-Y-(Biphenyl-A)K(Sub-KuE)]

- IC50 (PSMA [4]): 4.3 ± 0.9 nM
Molecule: CC(=O)N[C@@H](Cc1ccc(O)cc1)C(=O)N[C@@H](Cc1cccc2ccccc12)C(=O)N[C@@H](CCCCNC(=O)CCCCCCC(=O)NCCCC[C@H](NC(=O)N[C@@H](CCC(=O)O)C(=O)O)C(=O)O)C(=O)O [PSMA inhibitor 5, Ac-Y-1-Nal-K(Sub-KuE)]

- IC50 (PSMA [4]): 3.9 ± 1.7 nM
Molecule: CC(=O)N[C@@H](Cc1ccc(O)cc1)C(=O)N[C@@H](Cc1ccc2ccccc2c1)C(=O)N[C@@H](CCCCNC(=O)CCCCCCC(=O)NCCCC[C@H](NC(=O)N[C@@H](CCC(=O)O)C(=O)O)C(=O)O)C(=O)O [PSMA inhibitor 6, Ac-Y-2-Nal-K(Sub-KuE)]

- IC50 (PSMA [4]; [5]): 4.6 ± 0.9 nM
Molecule: O=C(O)CC[C@H](NC(=O)N[C@@H](CCCCNC(=O)[C@@H](Cc1ccc(I)cc1)NC(=O)CCCC(=O)NCCCC[C@@H](NC(=O)[C@@H](Cc1ccc2ccccc2c1)NC(=O)[C@@H](Cc1ccc(O)cc1)NC(=O)CCC(C(=O)O)N1CCN(CC(=O)O)CCN(CC(=O)O)CCN(CC(=O)O)CC1)C(=O)O)C(=O)O)C(=O)O (some centres unmarked) [PSMA inhibitor 11, DOTAGA-y-2-nal-k((I-f)-Glut-KuE)]

- IC50 (PSMA [4]; [5]): 9.3 ± 2.9 nM
Molecule: ^natGa-DOTAGA-y-2-nal-k((I-f)-Glut-KuE) [^natGa-11]

- IC50 (PSMA [4]; [5]): 9.8 ± 3.2 nM
Molecule: ^natGa-DOTAGA-y-2-nal-k(Sub-KuE) [^natGa-10]

- IC50 (PSMA [4]; [5]): 6.1 ± 1.6 nM
- bound to HSA (human serum albumin [2]): 97%
Molecule: ^natLu-DOTAGA-y-2-nal-k((I-f)-Glut-KuE) [^natLu-11]

- IC50 (PSMA [4]; [5]): 2.1 ± 0.8 nM
- bound to HSA (human serum albumin [2]): 83%
Molecule: ^natLu-DOTAGA-y-2-nal-k(Sub-KuE) [^natLu-10]
